The source of these data is US6340678B1, “4,4-difluoro-2,3,4,5-tetrahydro-1H-1-benzoazepine derivatives and drug compositions containing them” (Yamanouchi Pharmaceutical Co., Ltd., priority 1997, dated 2002).

This assay has as its target T1, oxytocin receptor (Rattus norvegicus, UniProt P70536).
T1 construct: uterus was excised, and a membrane sample was prepared therefrom; from tissue; host or cells: rat uterus (membrane preparation after diethylstilbestrol dipropionate treatment)
T1 sequence (P70536 1-388): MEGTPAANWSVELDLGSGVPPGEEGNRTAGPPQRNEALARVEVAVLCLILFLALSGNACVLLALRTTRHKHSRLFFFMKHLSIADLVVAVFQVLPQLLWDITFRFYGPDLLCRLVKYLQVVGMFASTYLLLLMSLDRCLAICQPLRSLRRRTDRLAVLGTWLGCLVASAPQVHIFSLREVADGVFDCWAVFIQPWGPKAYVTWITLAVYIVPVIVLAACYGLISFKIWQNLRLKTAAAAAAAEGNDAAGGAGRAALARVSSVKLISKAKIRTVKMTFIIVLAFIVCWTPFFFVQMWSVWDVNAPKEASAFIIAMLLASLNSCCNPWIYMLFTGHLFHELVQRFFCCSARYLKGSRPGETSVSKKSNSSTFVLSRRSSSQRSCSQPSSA
The assay can be described thus: Oxytocin receptor binding assay ([3H]-oxytocin, rat uterine membrane sample). As for the experimental part: (Oxytocin Receptor Binding Assay)
Preparation of Uterine membrane was prepared by a method of Soroff, et al. (J. Biol. Chem., 249: 1376, 1974) while a binding assay was performed by a method of Pettibone, et al. (Endocrinology, 125: 217, 1989). Diethylstilbestrol dipropionate (0.3 mg/kg) was administered to a rat intraperitoneally, and after 18 to 24 hours, uterus was excised, and a membrane sample was prepared therefrom. [^3H]-Oxytocin (0.5 nM; specific activity=30 to 60 Ci/mmol), 50 μg of the membrane sample and a test drug (10^−8 to 10^−5 M) were incubated at room temperature for 60 minutes in 250 μl (total volume) of 50 mM Tris hydrochloride buffer (pH 7.4) containing 10 mM of magnesium chloride and 0.1% of bovine serum albumin (BSA). […] The glass filter was taken out, well dried and mixed with a cocktail for liquid scintillation, the amount of [^3H]-oxytocin bound to the sample was determined by a liquid scintillation counter, and the inhibition rate was calculated from the following equation: […]
wherein [L] is a concentration of the radioactive ligand; and Kd is a dissociation constant calculated from the scattered plots.
Then, a negative logarithmic value of Ki calculated hereinabove was taken as pKi. […]

The structures appear in SMILES notation. Positions of bridges follow the written chain, without caps; N, C: chain ends. Non-standard residues stand in square brackets, D forms with d. Residues, ends and D or L forms follow the SMILES beside them. Orn = NCCC[C@H](N)C(=O)O; Mpa = O=C(O)CCS

Compound `CCOc1ccc(C[C@H]2NC(=O)CCSSC[C@@H](C(=O)N3CCC[C@H]3C(=O)N[C@@H](CCCN)C(=O)NCC(N)=O)NC(=O)[C@H](CC(N)=O)NC(=O)[C@H]([C@@H](C)O)NC(=O)[C@H]([C@@H](C)CC)NC2=O)cc1` [atosiban] ([Mpa][dY](Et)ITNCP[Orn]G-NH2; disulfide 1-6) had a Ki of 11.7 nM.
